Key:
Assay type in all cases: cell-based
[1] = system: T47D (PI3Kα H1047R mutant) cells; assay: Inhibition of pAKT formation, alphaLISA SureFire Ultra AKT 1/2/3 (pS473), T47D cells; settings: Homo sapiens, T47D, T47D (PI3Kα H1047R mutant) cells; inhibition of pAKT (pS473) formation; approximately one hour or 24 hours treatment; read-out: T47D pAKT (H1047R mutant) IC50
Procedure: The ability of a compound of Formula (I) to inhibit the formation of pAKT was measured using alphaLISA Surefire Ultra AKT 1/2/3 (pS473) Assay Kit (#ALSU-PAKT-B50K) was obtained from Perkin Elmer (Waltham, MA).
To prepare assay plates for pAKT alphaLISA assays, cells were trypsinized, resuspended in fresh media, and viable cells were counted utilizing trypan blue exclusion. Prior to seeding, cells were washed with PBS and resuspended in HBSS (Gibco, #14025092). T47D (12,000/w), SKBR3(12,000/w), or MKN1(24,000/w) cells were seeded at 12 μl per well in a solid white flat bottom 384 cell culture plate (Perkin Elmer #6007680).
Immediately after seeding, cells were dosed using an Echo Liquid Handler (Beckman Coulter) with compounds at a […] starting concentration and serially diluted (1:4) for a total of 10 concentrations. […] Cells were incubated with the compounds (solubilized in DMSO) for approximately one hour or 24 hours at 37° C. After one hour (or 24 hours) of treatment, cells were lysed with 3 μl of the 5× lysis buffer (provided and incubated at room temperature for 15 min on a microtiter plate shaker). Once cells were sufficiently lysed, 7.5 μl of the acceptor bead mix (made using the manufacturers recommended dilutions) was added to each well and left on the microtiter plate shaker for 1 min prior to incubating plates at room temperature for one hour, in the absence of light. After one hour of incubation with the acceptor bead mix, 7.5 μl of the donor bead mix (made using the manufacturers recommended dilutions) was added to each well and left on the microtiter plate shaker for 1 min prior to incubating plates at room temperature overnight in the absence of light. Plates were then imaged the following day using a CLARIOstar microplate reader (BMG Labtech, Germany).
Percent of control values were calculated by subtracting the average signal from the positive control (alpelisib) treated wells from all treated wells (including DMSO control wells) and then divided by the average signal from the vehicle DMSO treated control wells. Percent of vehicle control values were plotted as log (inhibitor) vs. response-Variable slope (four parameters) for curve fitting and IC50 values were determined using XLfit.
Key: N.D. =not determined
Inhibition of pAKT in T47D (PI3Kα H1047R mutant) cells by Exemplary Compounds of Formula (I)

[2] = system: T47D (PI3Kα H1047R mutant) cells; assay: CellTiter-Glo 2.0 luminescent cell viability assay, 72 hours, T47D cells; settings: T47D (PI3Kα H1047R mutant) cells, CellTiter-Glo, approximately 72 hours, read-out: T47D (H1047R mutant) Viability IC50
Outline: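 Cells seeded at 1000 per well overnight were dosed with a 10-concentration, 1:4 series starting at 10 µM and incubated ~72 h at 37° C. Viability was read by CellTiter-Glo 2.0 luminescence after 30 min at room temperature. IC50 came from four-parameter fits of percent vehicle control.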

[3] = system: SKBR3 (PI3Kα wild type) cells; assay: CellTiter-Glo 2.0 luminescent cell viability assay, 72 hours, SKBR3 cells; settings: Homo sapiens, SK-BR-3, 72 h, SKBR3 (PI3Kα wild type) cells, CellTiter-Glo, approximately 72 hours; read-out: SKBR3 (WT) Viability IC50
Outline: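 Viability measured via CTG luminescence following roughly 72 hours of compound exposure at 37° C. Dosing used a 10 um starting concentration diluted 1:4 over 10 points; percent-of-vehicle data fitted with a variable-slope four-parameter model for IC50.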

| IC50 [1] | IC50 ([2]; Homo sapiens, T47D, 72 h) | IC50 [3] | IC50 [2] | SMILES |
| --- | --- | --- | --- | --- |
| 0.639 nM | 31 nM | > 10000 nM | – | Cc1cc([C@@H](C)Nc2ccccc2C(=O)O)c2nc(N3CCC(F)(F)CC3)c(Br)c(=O)n2c1 [Example 10-12, (R)-2-((1-(3-bromo-2-(4,4-difluoropiperidin-1-yl)-7-methyl-4-oxo-4H-pyrido[1,2-a]pyrimidin-9-yl)ethyl)amino)benzoic acid] |
| 4.1 nM | 163 nM | > 10000 nM | – | Cc1cc([C@@H](C)Nc2ccccc2C(=O)O)c2nc(N3CC4CC3C(F)(F)C4)c(C)c(=O)n2c1 (stereo partly drawn) [Example 10-141, 2-(((1R)-1-(2-(6,6-difluoro-2-azabicyclo[2.2.1]heptan-2-yl)-3,7-dimethyl-4-oxo-4H-pyrido[1,2-a]pyrimidin-9-yl)ethyl)amino)benzoic acid] |
| 2.64 nM | 109 nM | > 10000 nM | – | Cc1cc([C@@H](C)Nc2ccccc2C(=O)O)c2nc(N3CCC(F)(F)[C@H](C)C3)c(C)c(=O)n2c1 [Example 10-126, 2-(((R)-1-(2-((R)-4,4-difluoro-3-methylpiperidin-1-yl)-3,7-dimethyl-4-oxo-4H-pyrido[1,2-a]pyrimidin-9-yl)ethyl)amino)benzoic acid] |
| 3.95 nM | 73.2 nM | > 10000 nM | – | COC1(C)CCN(c2nc3c([C@@H](C)Nc4ccccc4C(=O)O)cc(C)cn3c(=O)c2C)CC1 [Example 10-56, (R)-2-((1-(2-(4-methoxy-4-methylpiperidin-1-yl)-3,7-dimethyl-4-oxo-4H-pyrido[1,2-a]pyrimidin-9-yl)ethyl)amino)benzoic acid] |
| 572 nM | – | > 10000 nM | 75.8 nM | Cc1cc([C@@H](C)Nc2ccccc2C(=O)O)c2nc(N3Cc4cc(F)c(F)cc4C3)c(C)c(=O)n2c1 [Example 10-140, (R)-2-((1-(2-(5,6-difluoroisoindolin-2-yl)-3,7-dimethyl-4-oxo-4H-pyrido[1,2-a]pyrimidin-9-yl)ethyl)amino)benzoic acid] |
| 6.72 nM | 92.5 nM | > 10000 nM | – | Cc1cc([C@@H](C)Nc2ccccc2C(=O)O)c2nc(N3CCC4(CC4)C(F)(F)C3)c(C)c(=O)n2c1 [Example 10-107, (R)-2-((1-(2-(4,4-difluoro-6-azaspiro[2.5]octan-6-yl)-3,R7-dimethyl-4-oxo-4H-pyrido[1,2-a]pyrimidin-9-yl)ethyl)amino)benzoic acid] |
| 1.93 nM | 68 nM | > 10000 nM | – | Cc1cc([C@@H](C)Nc2ccccc2C(=O)O)c2nc(N3CC(F)(F)C(F)(F)C3)c(C)c(=O)n2c1 [Example 10-51, (R)-2-((1-(3,7-dimethyl-4-oxo-2-(3,3,4,4-tetrafluoropyrrolidin-1-yl)-4H-pyrido[1,2-a]pyrimidin-9-yl)ethyl)amino)benzoic acid] |
| 4.3 nM | 83.2 nM | > 10000 nM | – | Cc1cc([C@@H](C)Nc2ccccc2C(=O)O)c2nc(N3CCN(c4ccc(F)cc4F)CC3)c(C)c(=O)n2c1 [Example 10-93, (R)-2-((1-(2-(4-(2,4-difluorophenyl)piperazin-1-yl)-3,7-dimethyl-4-oxo-4H-pyrido[1,2-a]pyrimidin-9-yl)ethyl)amino)benzoic acid] |
| 6.39 nM | 55.1 nM | > 10000 nM | – | Cc1cc([C@@H](C)Nc2ccccc2C(=O)O)c2nc(N3CCC(F)(F)[C@@H]3C)c(C#N)c(=O)n2c1 [Example 10-31, 2-(((R)-1-(3-cyano-2-((S)-3,3-difluoro-2-methylpyrrolidin-1-yl)-7-methyl-4-oxo-4H-pyrido[1,2-a]pyrimidin-9-yl)ethyl)amino)benzoic acid] |

The remaining lines, values behind:

| SMILES | IC50 [1] | IC50 ([2]; Homo sapiens, T47D, 72 h) | IC50 [3] | IC50 [2] |
| --- | --- | --- | --- | --- |
| Cc1cc([C@@H](C)Nc2ccccc2C(=O)O)c2nc(N3CCN(c4ccc(F)cc4)CC3)c(C#N)c(=O)n2c1 [Example 10-40, (R)-2-((1-(3-cyano-2-(4-(4-fluorophenyl)piperazin-1-yl)-7-methyl-4-oxo-4H-pyrido[1,2-a]pyrimidin-9-yl)ethyl)amino)benzoic acid] | 1.91 nM | 60 nM | > 10000 nM | – |
| Cc1cc([C@@H](C)Nc2ccccc2C(=O)O)c2nc(N3CCN(c4ccc(C#N)cc4)C[C@H]3C)c(C)c(=O)n2c1 [Example 10-22, 2-(((R)-1-(2-((R)-4-(4-cyanophenyl)-2-methylpiperazin-1-yl)-3,7-dimethyl-4-oxo-4H-pyrido[1,2-a]pyrimidin-9-yl)ethyl)amino)benzoic acid] | 3.85 nM | 48 nM | 5540 nM | – |
| C[C@@H](Nc1ccccc1C(=O)O)c1cc(Cl)cn2c(=O)c(C#N)c(N3Cc4ccccc4C3)nc12 [Example 10-11, (R)-2-((1-(7-chloro-3-cyano-2-(isoindolin-2-yl)-4-oxo-4H-pyrido[1,2-a]pyrimidin-9-yl)ethyl)amino)benzoic acid] | 1.71 nM | 30.5 nM | 7770 nM | – |
| Cc1cc([C@@H](C)Nc2ccccc2C(=O)O)c2nc(N3CC4CC(C3)C4(F)F)c(C)c(=O)n2c1 [Example 10-102, 2-(((1R)-1-(2-(6,6-difluoro-3-azabicyclo[3.1.1]heptan-3-yl)-3,7-dimethyl-4-oxo-4H-pyrido[1,2-a]pyrimidin-9-yl)ethyl)amino)benzoic acid] | 3.71 nM | 87 nM | > 10000 nM | – |
| Cc1cc([C@@H](C)Nc2ccccc2C(=O)O)c2nc(N3CCN(c4cn(C)nc4C(F)(F)F)CC3)c(C)c(=O)n2c1 [Example 10-13, (R)-2-((1-(3,7-dimethyl-2-(4-(1-methyl-3-(trifluoromethyl)-1H-pyrazol-4-yl)piperazin-1-yl)-4-oxo-4H-pyrido[1,2-a]pyrimidin-9-yl)ethyl)amino)benzoic acid] | 1 nM | 32.8 nM | 5890 nM | – |
| COC1CCN(c2nc3c([C@@H](C)Nc4ccccc4C(=O)O)cc(C)cn3c(=O)c2C#N)CC1 [Example 10-123, (R)-2-((1-(3-cyano-2-(4-methoxypiperidin-1-yl)-7-methyl-4-oxo-4H-pyrido[1,2-a]pyrimidin-9-yl)ethyl)amino)benzoic acid] | 2.39 nM | 104 nM | > 10000 nM | – |
| C[C@@H](Nc1ccccc1C(=O)O)c1cc(F)cn2c(=O)c(C#N)c(N3CCC(F)(F)CC3)nc12 [Example 10-25, (R)-2-((1-(3-cyano-2-(4,4-difluoropiperidin-1-yl)-7-fluoro-4-oxo-4H-pyrido[1,2-a]pyrimidin-9-yl)ethyl)amino)benzoic acid] | 4.69 nM | 49.6 nM | > 10000 nM | – |
| Cc1cc([C@@H](C)Nc2ccccc2C(=O)O)c2nc(NC3CCC3)c(C#N)c(=O)n2c1 [Example 10-90, (R)-2-((1-(3-cyano-2-(cyclobutylamino)-7-methyl-4-oxo-4H-pyrido[1,2-a]pyrimidin-9-yl)ethyl)amino)benzoic acid] | 0.596 nM | 82.4 nM | > 10000 nM | – |
| Cc1cc([C@@H](C)Nc2ccc(Cl)nc2C(=O)O)c2nc(N3Cc4ccc(F)cc4C3)c(C#N)c(=O)n2c1 [Example 10-50, (R)-6-chloro-3-((1-(3-cyano-2-(5-fluoroisoindolin-2-yl)-7-methyl-4-oxo-4H-pyrido[1,2-a]pyrimidin-9-yl)ethyl)amino)picolinic acid] | 1.34 nM | 66.5 nM | > 10000 nM | – |
| Cc1cc([C@@H](C)Nc2ccc(C)nc2C(=O)O)c2nc(NC3CCC3)c(C#N)c(=O)n2c1 [Example 10-115, (R)-3-((1-(3-cyano-2-(cyclobutylamino)-7-methyl-4-oxo-4H-pyrido[1,2-a]pyrimidin-9-yl)ethyl)amino)-6-methylpicolinic acid] | 58.4 nM | 98.8 nM | > 10000 nM | – |
